Patent publication US20230248814A1, “COMPOSITIONS AND METHODS FOR TREATING MERKEL CELL CARCINOMA (MCC) USING HLA CLASS I SPECIFIC EPITOPES” (The Broad Institute, Inc., priority 2020, published 2023)

Experiments:
Format in all cases: cell-based, human
MKL-1 cells [1] = experiment: Cell cycle analysis (EdU/DAPI flow cytometry) of MKL-1 control or p53 KO cells; conditions: MKL-1 TP53-WT and TP53-KO; 100 nM; three days
Method: Cell cycle analysis. 1 million MKL-1 control or p53 KO cells were plated and treated with DMSO, XL177A (100 nM) or XL177B (100 nM) for three days. During the last hour of the three- day treatment, the cells were pulsed with 10 µM EdU nucleotide. The cells were collected by centrifugation, treated with Accutase™ (Stem Cell Technologies) to break apart clumps, washed with PBS and fixed using 4% Formaldehyde solution in PBS at Room temperature for 15 mins. Cells were washed with 1% BSA in PBS and resuspended in 70% ice cold ethanol and incubated at -20° C. overnight for additional fixing and permeabilization. The cells were stored in 70% ethanol at -20° C. until the day the data was acquired. On the day of data acquisition, the cells were collected by centrifugation and washed twice with PBS. The incorporated EdU in the cells were labeled with a CLICK reaction cocktail (1 mM CuSO4, 100 µM THPTA, 100 mM sodium ascorbate, and 2.2 µM Alexa 647 azide in PBS) at room temperature with rocking for 30 minutes. The samples were then washed with 1% BSA in PBS once followed by two washes with PBS and incubated with a 1 µg/ml DAPI, 100 ng/ml RNase A solution for one hour at Room temperature to stain the DNA. The samples were then passed through strainer tubes and analyzed using a BD Fortessa analyzer. The flow cytometry data was analyzed using the FlowJo Software. […]

MKL-1 cells [2] = experiment: USP7 inhibitor flow cytometry for surface HLA-I in MKL-1 p53-WT control and p53-KO lines; conditions: MKL-1 TP53-KO and TP53-WT lines; 100 nM
Method: For MKL-1 USP7 inhibitor experiments, p53-WT control lines (WT, scrambled, AAVS1) and three p53-KO lines were treated with USP7 inhibitors and assessed by flow cytometry for surface HLA I as described above for MCC-301.

[3] = test system: MCC lines (MCC-301, -277, -290, -320); experiment: USP7 inhibitor experiments: flow cytometry for surface HLA-I in MCC lines
MCC-301 cells = experiment: HLA-I-bound peptidome (TMT LC-MS/MS) of USP7 inhibitor treated MCC-301 cells
Method: Immunopeptidomes of USP7 inhibitor treated cell lines were eluted as described above, followed by labeling with TMT6 reagent (Thermo Fisher; 126-USP7iA, 127-WT, 128 USP7iA, 129 WT, 130-USP7iB, 131 USP7iB) and then pooled for subsequent fractionation using basic reversed phase fractionation with increasing concentrations of acetonitrile (10%, 15% and 50%) in 5 mM ammonium formate (pH 10) and analysis on an Orbitrap Exploris 480 with FAIMSpro. Data acquisition parameters were as above with NCE set to 34 and 2 second dynamic exclusion.
Mass spectra were interpreted using Spectrum Mill software package v7.1 pre-Release (Broad Institute, Cambridge, MA). […] Merging of similar spectra with the same precursor m/z acquired in the same chromatographic peak was disabled. MS/MS spectra were searched against a protein sequence database that contained 90,904 entries, including all UCSC Genome Browser genes with hg19 annotation of the genome and its protein coding transcripts (52,788 entries), common human virus sequences (30,181 entries), recurrently mutated proteins observed in tumors from 26 tissues (4,595 entries), 264 common laboratory contaminants as well as protein sequences containing somatic mutations detected in MCC cell lines (3,076 entries). MS/MS search parameters included: no-enzyme specificity; ESI-QEXACTIVE-HCD-HLA-v3 instrument scoring; fixed modification: […]; variable modifications: oxidation of methionine, carbamidomethylation of cysteine and pyroglutamic acid at peptide N-terminal glutamine; precursor mass tolerance of ±10 ppm; product mass tolerance of ±10 ppm, and a minimum matched peak intensity of 30%. Peptide spectrum matches (PSMs) for individual spectra were automatically designated as confidently assigned using the Spectrum Mill auto-validation module to apply target-decoy based FDR estimation at the PSM level of <1% FDR. Peptide auto-validation was done separately for each sample with an auto thresholds strategy to optimize score and delta Rank1 - Rank2 score thresholds separately for each precursor charge state (1 through 4) across all LC-MS/MS runs per sample. […] Peptide and PSM exports were filtered for contaminants including potential carry over tryptic peptides and peptides identified in a blank bead sample. For TMT-labeled samples, peptides derived from keratin proteins were removed and TMT intensity values were normalized to the global median. P-values were calculated using in house software based on the limma package in R.

[4] = 100 nM, 3 days, two MCPyV+ lines (MCC-301, -277)

CN1CCN(CCC(=O)Nc2ccc3c(=O)n(CC4(O)CCN(C(=O)[C@@H](CCCNC(=O)c5ccc6c(Cl)c7c(nc6c5)CCCC7)Cc5ccccc5)CC4)cnc3c2)CC1 [XL177A]
cell cycle phase distribution (MKL-1 cells [1]): slight cell cycle shifts from S to G1 phase
surface HLA-I relative to XL177B and DMSO (MKL-1 cells [2]): increased surface HLA-I
increase in expression of surface HLA-I relative to DMSO (mean) [3, 4]: 2.0 fold
increase in expression of surface HLA-I relative to DMSO (range) [3, 4]: 1.78 - 2.27 fold
increase in MFI (HLA-ABC) by flow cytometry ([3]; MCC-301, 100 nM, 4 days): greater than twofold increase
HLA-I levels ([3]; MCPyV- line MCC-290, 3 days): more modest increase in HLA-I levels
HLA-I levels ([3]; MCPyV- line MCC-320, 3 days): but not MCC-320
abundances of HLA-I displayed peptides compared to XL177B and untreated cells (MCC-301 cells): higher abundances of displayed peptides
frequency of peptides displayed on each HLA-I gene (HLA-A, -B, -C) (MCC-301 cells): did not affect
peptides more abundant than in untreated cells, out of 282 significantly differing (P < 0.05) (MCC-301 cells): 270 peptides
share of the 282 significantly differing peptides more abundant than in untreated cells (MCC-301 cells): 95.7%
